Measured values as given in PubChem BioAssay AID1259407 (Chemical Carcinogenesis Research Information System (CCRIS), 2018).
Active and inactive are the calls of the source. The rule behind the calls is not given here.

Test system: CCRIS mutagenicity, Ames/micronucleus/aberration tests
Assay: CCRIS mutagenicity studies
[1] = Test System: AMES SALMONELLA TYPHIMURIUM, Strain/Indicator: TA98, Metabolic Activation: NONE, Method: STANDARD PLATE
[2] = Test System: AMES SALMONELLA TYPHIMURIUM, Strain/Indicator: TA100, Metabolic Activation: NONE, Method: STANDARD PLATE
[3] = Test System: AMES SALMONELLA TYPHIMURIUM, Strain/Indicator: TA1535, Metabolic Activation: NONE, Method: STANDARD PLATE
[4] = Test System: AMES SALMONELLA TYPHIMURIUM, Strain/Indicator: TA1537, Metabolic Activation: NONE, Method: STANDARD PLATE
[5] = Test System: AMES SALMONELLA TYPHIMURIUM, Strain/Indicator: TA97, Metabolic Activation: HAMSTER, LIVER, S-9, AROCLOR 1254 (10 OR 30%), Method: PREINCUBATION
[6] = Test System: AMES SALMONELLA TYPHIMURIUM, Strain/Indicator: TA97, Metabolic Activation: NONE, Method: PREINCUBATION
[7] = Test System: AMES SALMONELLA TYPHIMURIUM, Strain/Indicator: TA97, Metabolic Activation: RAT, LIVER, S-9, AROCLOR 1254 (10 OR 30%), Method: PREINCUBATION
[8] = Test System: AMES SALMONELLA TYPHIMURIUM, Strain/Indicator: TA98, Metabolic Activation: HAMSTER, LIVER, S-9, AROCLOR 1254 (10 OR 30%), Method: PREINCUBATION
[9] = Test System: AMES SALMONELLA TYPHIMURIUM, Strain/Indicator: TA98, Metabolic Activation: NONE, Method: PREINCUBATION
[10] = Test System: AMES SALMONELLA TYPHIMURIUM, Strain/Indicator: TA98, Metabolic Activation: RAT, LIVER, S-9, AROCLOR 1254 (10 OR 30%), Method: PREINCUBATION
[11] = Test System: AMES SALMONELLA TYPHIMURIUM, Strain/Indicator: TA100, Metabolic Activation: HAMSTER, LIVER, S-9, AROCLOR 1254 (10 OR 30%), Method: PREINCUBATION
[12] = Test System: AMES SALMONELLA TYPHIMURIUM, Strain/Indicator: TA100, Metabolic Activation: NONE, Method: PREINCUBATION
[13] = Test System: AMES SALMONELLA TYPHIMURIUM, Strain/Indicator: TA100, Metabolic Activation: RAT, LIVER, S-9, AROCLOR 1254 (10 OR 30%), Method: PREINCUBATION
[14] = Test System: AMES SALMONELLA TYPHIMURIUM, Strain/Indicator: TA1535, Metabolic Activation: HAMSTER, LIVER, S-9, AROCLOR 1254 (10 OR 30%), Method: PREINCUBATION
[15] = Test System: AMES SALMONELLA TYPHIMURIUM, Strain/Indicator: TA1535, Metabolic Activation: NONE, Method: PREINCUBATION
[16] = Test System: AMES SALMONELLA TYPHIMURIUM, Strain/Indicator: TA1535, Metabolic Activation: RAT, LIVER, S-9, AROCLOR 1254 (10 OR 30%), Method: PREINCUBATION

Measured: mutagenic call

Nc1ccc2c(=O)[nH]sc2c1
inactive: [1] inactive; negative | Test System: AMES SALMONELLA TYPHIMURIUM, Strain/Indicator: TA98, Metabolic Activation: S-9, Method: STANDARD PLATE inactive; negative | [2] inactive; negative | Test System: AMES SALMONELLA TYPHIMURIUM, Strain/Indicator: TA100, Metabolic Activation: S-9, Method: STANDARD PLATE inactive; negative | [3] inactive; negative | Test System: AMES SALMONELLA TYPHIMURIUM, Strain/Indicator: TA1535, Metabolic Activation: S-9, Method: STANDARD PLATE inactive; negative | [4] inactive; negative | Test System: AMES SALMONELLA TYPHIMURIUM, Strain/Indicator: TA1537, Metabolic Activation: S-9, Method: STANDARD PLATE inactive; negative

O=C1C=CCO1
inactive: Test System: AMES SALMONELLA TYPHIMURIUM, Strain/Indicator: TA98, Metabolic Activation: RAT, LIVER, MICROSOMES, PHENOBARBITAL, Method: STANDARD PLATE inactive; negative | Test System: AMES SALMONELLA TYPHIMURIUM, Strain/Indicator: TA100, Metabolic Activation: RAT, LIVER, MICROSOMES, PHENOBARBITAL, Method: STANDARD PLATE inactive; negative

CCC[CH2][Sn]([CH2]CCC)([CH2]CCC)[O][Sn]([CH2]CCC)([CH2]CCC)[CH2]CCC
inactive: [5] inactive; negative | [6] inactive; negative | [7] inactive; negative | [8] inactive; negative | [9] inactive; negative | Test System: AMES SALMONELLA TYPHIMURIUM, Strain/Indicator: TA98, Metabolic Activation: NONE, Method: SUSPENSION/PLATE inactive; negative | [10] inactive; negative | [11] inactive; negative | [12] inactive; negative | Test System: AMES SALMONELLA TYPHIMURIUM, Strain/Indicator: TA100, Metabolic Activation: NONE, Method: SUSPENSION/PLATE inactive; negative | [13] inactive; negative | [14] inactive; negative | [15] inactive; negative | [16] inactive; negative

CCOC(C)(C)C
inactive: [5] inactive; negative | [6] inactive; negative | [7] inactive; negative | [8] inactive; negative | [9] inactive; negative | [10] inactive; negative | [11] inactive; negative | [12] inactive; negative | [13] inactive; negative | [14] inactive; negative | [15] inactive; negative | [16] inactive; negative

O=C1CCC(=O)N1c1cc(Cl)cc(Cl)c1
inactive: [1] inactive; negative | Test System: AMES SALMONELLA TYPHIMURIUM, Strain/Indicator: TA98, Metabolic Activation: RAT, LIVER, S-9, AROCLOR 1254, Method: STANDARD PLATE inactive; negative | [2] inactive; negative | Test System: AMES SALMONELLA TYPHIMURIUM, Strain/Indicator: TA100, Metabolic Activation: RAT, LIVER, S-9, AROCLOR 1254, Method: STANDARD PLATE inactive; negative

CO/N=C(\C(=O)N[C@@H]1C(=O)N2C(C(=O)[O-])=C(C[n+]3ccn4ncccc43)CS[C@H]12)c1nsc(N)n1
inactive: [1] inactive; negative | Test System: AMES SALMONELLA TYPHIMURIUM, Strain/Indicator: TA98, Metabolic Activation: RAT, LIVER, S-9, SODIUM PHENOBARBITAL AND 5,6-BENZOFLAVONE, Method: STANDARD PLATE inactive; negative | [2] inactive; negative | Test System: AMES SALMONELLA TYPHIMURIUM, Strain/Indicator: TA100, Metabolic Activation: RAT, LIVER, S-9, SODIUM PHENOBARBITAL AND 5,6-BENZOFLAVONE, Method: STANDARD PLATE inactive; negative | [3] inactive; negative | Test System: AMES SALMONELLA TYPHIMURIUM, Strain/Indicator: TA1535, Metabolic Activation: RAT, LIVER, S-9, SODIUM PHENOBARBITAL AND 5,6-BENZOFLAVONE, Method: STANDARD PLATE inactive; negative | [4] inactive; negative | Test System: AMES SALMONELLA TYPHIMURIUM, Strain/Indicator: TA1537, Metabolic Activation: RAT, LIVER, S-9, SODIUM PHENOBARBITAL AND 5,6-BENZOFLAVONE, Method: STANDARD PLATE inactive; negative | Test System: E. COLI, Strain/Indicator: WP2 UVRA, Metabolic Activation: NONE, Method: STANDARD PLATE inactive; negative | Test System: E. COLI, Strain/Indicator: WP2 UVRA, Metabolic Activation: RAT, LIVER, S-9, SODIUM PHENOBARBITAL AND 5,6-BENZOFLAVONE, Method: STANDARD PLATE inactive; negative
